Source: US8802597B2, “Herbicidal pyrimidines” (E I du Pont de Nemours and Company, priority 2003, dated 2014)

Experiments:
Test in all cases: Test C pre/postemergence
Type in all cases: in vivo
Details in all cases: Postemergence
[1] = test system: cocklebur (Xanthium strumarium)
Method in brief: (§1)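 Pre: seeds planted, sprayed same day. Post: 1- to 4-leaf plants (2–18 cm). Formulation: non-phytotoxic solvent + surfactant. Greenhouse 12–14 d; visual % control vs untreated, 0–100.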

[2] = test system: common ragweed (Ambrosia elatior)
Method in brief: as §1

[3] = test system: crabgrass (Digitaria sanguinalis)
Method in brief: as §1

[4] = test system: giant foxtail (Setaria faberii)
Method in brief: as §1

kochia (Kochia scoparia) = test system: kochia (Kochia scoparia)
Method in brief: as §1

[5] = test system: morningglory (Ipomoea coccinea)
Method in brief: as §1

[6] = test system: pigweed (Amaranthus retroflexus)
Method in brief: as §1

[7] = test system: velvetleaf (Abutilon theophrasti)
Method in brief: as §1

[8] = test system: woolly cupgrass (Eriochloa villosa)
Method in brief: as §1

[9] = test system: yellow nutsedge (Cyperus esculentus)
Method in brief: as §1

[10] = 125 g ai/ha, scale 0 to 100 (0 no effect, 100 complete control)

SMILES: Nc1nc(-c2ccc(Br)cc2)nc(C(=O)O)c1Br [Compound 136]
- Plant response rating (scale of 0 to 100), Cocklebur ([1]; 16 g ai/ha): 95
- Plant response rating (scale of 0 to 100), Cocklebur ([1]; 31 g ai/ha): 100
- Plant response rating (scale of 0 to 100), Cocklebur ([1]; 62 g ai/ha): 100
- Cocklebur plant response rating [1, 10]: 100
- Plant response rating (scale of 0 to 100), Ragweed ([2]; 16 g ai/ha): 75
- Plant response rating (scale of 0 to 100), Ragweed ([2]; 31 g ai/ha): 85
- Plant response rating (scale of 0 to 100), Ragweed ([2]; 62 g ai/ha): 90
- Ragweed plant response rating [2, 10]: 95
- Plant response rating (scale of 0 to 100), Crabgrass ([3]; 16 g ai/ha): 60
- Plant response rating (scale of 0 to 100), Crabgrass ([3]; 31 g ai/ha): 75
- Plant response rating (scale of 0 to 100), Crabgrass ([3]; 62 g ai/ha): 75
- Crabgrass plant response rating [3, 10]: 75
- Plant response rating (scale of 0 to 100), Foxtail, Giant ([4]; 16 g ai/ha): 65
- Plant response rating (scale of 0 to 100), Foxtail, Giant ([4]; 31 g ai/ha): 75
- Plant response rating (scale of 0 to 100), Foxtail, Giant ([4]; 62 g ai/ha): 75
- Foxtail, Giant plant response rating [4, 10]: 85
- Plant response rating (scale of 0 to 100), Kochia (kochia (Kochia scoparia); 16 g ai/ha): 75
- Plant response rating (scale of 0 to 100), Kochia (kochia (Kochia scoparia); 31 g ai/ha): 80
- Plant response rating (scale of 0 to 100), Kochia (kochia (Kochia scoparia); 62 g ai/ha): 90
- Kochia plant response rating (kochia (Kochia scoparia); [10]): 90
- Plant response rating (scale of 0 to 100), Morningglory ([5]; 16 g ai/ha): 65
- Plant response rating (scale of 0 to 100), Morningglory ([5]; 31 g ai/ha): 85
- Plant response rating (scale of 0 to 100), Morningglory ([5]; 62 g ai/ha): 90
- Morningglory plant response rating [5, 10]: 100
- Plant response rating (scale of 0 to 100), Pigweed ([6]; 16 g ai/ha): 90
- Plant response rating (scale of 0 to 100), Pigweed ([6]; 31 g ai/ha): 100
- Plant response rating (scale of 0 to 100), Pigweed ([6]; 62 g ai/ha): 100
- Pigweed plant response rating [6, 10]: 100
- Plant response rating (scale of 0 to 100), Velvetleaf ([7]; 16 g ai/ha): 85
- Plant response rating (scale of 0 to 100), Velvetleaf ([7]; 31 g ai/ha): 85
- Plant response rating (scale of 0 to 100), Velvetleaf ([7]; 62 g ai/ha): 90
- Velvetleaf plant response rating [7, 10]: 95
- Plant response rating (scale of 0 to 100), Cupgrass, Woolly ([8]; 16 g ai/ha): 55
- Plant response rating (scale of 0 to 100), Cupgrass, Woolly ([8]; 31 g ai/ha): 65
- Plant response rating (scale of 0 to 100), Cupgrass, Woolly ([8]; 62 g ai/ha): 70
- Cupgrass, Woolly plant response rating [8, 10]: 70
- Plant response rating (scale of 0 to 100), Nutsedge, Yellow ([9]; 16 g ai/ha): 60
- Plant response rating (scale of 0 to 100), Nutsedge, Yellow ([9]; 31 g ai/ha): 65
- Plant response rating (scale of 0 to 100), Nutsedge, Yellow ([9]; 62 g ai/ha): 75
- Nutsedge, Yellow plant response rating [9, 10]: 75
